Drawing on patent publication US9615577B2, “Herbicidally active cyclic dione compounds, or derivatives therefor, substituted by a phenyl which has an alkynyl-containing substituent” (Syngenta Limited, priority 2012, dated 2017), this text covers pest or weed control and plant injury for seven compounds.

Each structure is given as a SMILES string.

What all share (format): in vivo
Test [1] has as its system Alopecurus myosuroides (ALOMY). The test is described as follows: Test 1A glasshouse assay for herbicidal activity, post-emergence. To be noted: 312 h, evaluated after 13 days, read-out: percentage phytotoxicity ALOMY. The gist of the method:
(§1)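 Phytotoxicity was rated visually 13 days post-spray, 0 meaning no damage and 100 total damage. Spray solution: acetone/water 50:50 with 0.5% Tween 20, applied one day post-sowing for pre-emergence or after 8 days for post-emergence; plants kept at 24/16 °C, 14 h light, 65% humidity.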

Test [2] has as its system Setaria faberi (SETFA). Described as above. The settings on record: 312 h, evaluated after 13 days, read-out: percentage phytotoxicity SETFA. The method, boiled down: as §1
In test [3] the test system is Beta vulgaris (BEAVA, sugar beet). The test can be described thus: Test 1B glasshouse assay for herbicidal activity, pre-emergence. To be noted: 480 h, 20 DAA, read-out: percentage phytotoxicity BEAVA. The method, then: (§2) Seeds of a variety of monocotyledonous and dicotyledonous test plants are sown in standard soil in pots. The plants are cultivated for one day (for pre-emergence) or for about 12 days (range=10-13 days) (for post-emergence) under controlled conditions in a glasshouse (warm climate species at 24/18° C., cool climate species at 20/16° C., both at day/night; 16 hours light; 65% humidity).
(§3) An “instant formulation”, known as the “IF50”, containing 50 g/liter (i.e. 5% w/v) of the “technical” (i.e. unformulated) active ingredient is prepared by dissolving the active ingredient in a mixture of organic solvents and emulsifier, details of which are provided in the Table below. This IF50 is then mixed with a small, variable amount of acetone to aid dissolution, before addition of a 0.2% v/v aqueous solution of the adjuvant X-77 (which is a mixture of alkyl aryl polyoxyethylene glycols and free fatty acids in isopropanol, CAS Registry number 11097-66-8), as the aqueous diluent, to form an aqueous spray solution which contains a predetermined concentration of the active ingredient (which varies depending on the application rate of the active ingredient to the plants) and 0.2% v/v of the adjuvant X-77. This aqueous spray solution is then sprayed onto the plants, after one day's cultivation (for pre-emergence) or after about 12 days' cultivation (for post-emergence).
(§4) The test plants are then grown on, in a glasshouse (greenhouse) under controlled conditions (at either 24/18° C. or 20/16° C. (day/night) as mentioned above; 16 hours light; 65% humidity) and are watered twice daily. Either 15 days after application of the herbicide (15 DAA) (for post-emergence), or 20 days after application of the herbicide (20 DAA) (for pre-emergence), the test plants are evaluated visually, and an assessed percentage phytotoxicity score is given for each herbicidal application on each plant species (where 100%=total damage to plant; 0%=no damage to plant).
(§5) Cool climate crop plants: Triticum aestivum (TRZAW, winter wheat), Brassica napus (BRSNN, rape, also called oilseed rape or rapeseed), Beta vulgaris (BEAVA, sugar beet).

Test [4] deals with Brassica napus (BRSNN, rape). The test is described as above. To be noted: 480 h, 20 DAA, read-out: percentage phytotoxicity BRSNN. The method, then: as §2, §3, §4, §5
Test [5] has as its system Triticum aestivum (TRZAW, winter wheat). Described as above. The settings on record: 480 h, 20 DAA, read-out: percentage phytotoxicity TRZAW. On the procedure: as §2, §3, §4, §5
Test [6] has as its system Glycine max (GLXMA, soybean). The description is as above. To be noted: 480 h, 20 DAA, read-out: percentage phytotoxicity GLXMA. The method, then:
as §2, §3, §4
Warm climate crop plants: Glycine max (GLXMA, soybean).

The test system of test [7] is Alopecurus myosuroides (ALOMY). The description is as above. To be noted: 480 h, 20 DAA, read-out: percentage phytotoxicity ALOMY. On the procedure: as §2, §3, §4
(§6) Cool climate (“cool season”) grassy monocotyledonous weeds: Alopecurus myosuroides (ALOMY), Avena fatua (AVEFA), Lolium perenne (LOLPE).

The subject of another test is Avena fatua (AVEFA). Described as above. To be noted: 480 h, 20 DAA, read-out: percentage phytotoxicity AVEFA. On the procedure: as §2, §3, §4, §6
For a further test, the system named is Lolium perenne (LOLPE). The test is described as above. The settings on record: 480 h, 20 DAA, read-out: percentage phytotoxicity LOLPE. The method, then: as §2, §3, §4, §6
Test [8] deals with Digitaria sanguinalis (DIGSA). The description is as above. To be noted: 480 h, 20 DAA, read-out: percentage phytotoxicity DIGSA. The method, then: as §2, §3, §4
(§7) Warm climate (“warm season”) grassy monocotyledonous weeds: Setaria faberi (SETFA), SORVU (Sorghum bicolor (L.) Moench ssp. Bicolor, or Sorghum vulgare Pers.), Digitaria sanguinalis (DIGSA), Echinochloa crus-galli (ECHCG), and Brachiaria plantaginea (BRAPL).

Test [9] relates to Echinochloa crus-galli (ECHCG). Described as above. To be noted: 480 h, 20 DAA, read-out: percentage phytotoxicity ECHCG. The method, then: as §2, §3, §4, §7
For test [10], the system named is SORVU (Sorghum bicolor (L.) Moench ssp. Bicolor, or Sorghum vulgare Pers.). The description is as above. The settings on record: 480 h, 20 DAA, read-out: percentage phytotoxicity SORVU. On the procedure: as §2, §3, §4, §7
In test [11] the test system is Setaria faberi (SETFA). The description is as above. To be noted: 480 h, 20 DAA, read-out: percentage phytotoxicity SETFA. The method, then: as §2, §3, §4, §7
The subject of test [12] is Echinochloa crus-galli (ECHCG). The test is described as follows: Test 1B glasshouse assay for herbicidal activity, post-emergence. The settings on record: Echinochloa crus-galli; for pest or weed control at 60 g/ha: 60 g/ha application rate; for pest or weed control at 30 g/ha: 30 g/ha application rate. On the procedure: as §2, §3, §4, §7
Note: The herbicidal activity data (e.g. post-emergence) shown above in Biological Example 1B for Comparator compounds X-9 and X-10 is thought likely to have been measured some years ago, probably using a variant of the above-described test method. Also, for the post-emergence activity of X-9 and X-10 it is not currently known exactly how many days after application of the herbicide the phytotoxicity on the plants was measured.

For `CC#Cc1ccc(C2C(=O)C3CCC(C3)C2=O)c(C)c1` (single isomer, unassigned) [Compound A-2], the values for the pest or weed control at 250 g/ha (in [1]; in the test on Setaria faberi (SETFA) [2]) were 90% and 100%, respectively. Further, the plant injury at 500 g/ha in test [3] amounted to 0%; in test [4], 40%; in test [5], 60%; in test [6] it was 0%. Besides, the pest or weed control at 500 g/ha in test [7] was 100%; with Avena fatua (AVEFA), 80%; in the test on Lolium perenne (LOLPE), 100%; in test [8], 100%; in test [9], 100%; in [10], 80%. The pest or weed control at 500 g/ha with Setaria faberi (SETFA) [11] was 90%. In test [12], the pest or weed control at 60 g/ha is 100%.
With `CC#Cc1ccc(C2C(=O)C(C)(C)OC(C)(C)C2=O)c(C)c1` [Compound A-1], the pest or weed control at 250 g/ha in test [1] turned out to be 90%; with Setaria faberi (SETFA) [2] it was 70%. Further, the plant injury at 500 g/ha in test [3] was 10%; in test [4], 60%; in test [5], 40%; in [6], 10%. Further, the pest or weed control at 500 g/ha worked out at 70% in [7]; 10% with Avena fatua (AVEFA); 100% in the test with Lolium perenne (LOLPE); 60% in test [8]; 100% in test [9]; 60% in [10]. Moreover, the pest or weed control at 500 g/ha with Setaria faberi (SETFA) [11] was 50%. The compound further gave a pest or weed control at 60 g/ha in test [12] of 90%.
As for `CC#Cc1cc(C)c(C2C(=O)C3CCC(C3)C2=O)c(C)c1` (centres unmarked) [Compound A-5], the pest or weed control at 30 g/ha in test [1] is 80%; in the test with Setaria faberi (SETFA) [2], 70%; in test [12] it was 100%. For the same compound, the pest or weed control at 250 g/ha (in [1]; with Setaria faberi (SETFA) [2]) was 100% each time. For the same compound, the plant injury at 500 g/ha in [3] is 0%; in test [4] it was 90%; in [5] it was 20%; in test [6] it was 0%. Moreover, the pest or weed control at 500 g/ha is 80% in test [7]; 40% in the test with Avena fatua (AVEFA); 100% in the test on Lolium perenne (LOLPE); 100% in test [8]; 100% in test [9]; 90% in [10]. In addition, the pest or weed control at 500 g/ha in the test on Setaria faberi (SETFA) [11] was found to be 90%; in test [12] (500 g/ha application rate) it was 100%. Further, the pest or weed control at 60 g/ha in test [12] was found to be 100%. Moreover, the pest or weed control at 125 g/ha in [12] (125 g/ha application rate) was determined as 100%.
For `Cc1cc(C#CCl)cc(C)c1C1C(=O)C2CCC(C2)C1=O` (centres unmarked) [Compound A-6], the pest or weed control at 62.5 g/ha in test [1] (62.5 g/ha) stood at 70%; in the test on Setaria faberi (SETFA) [2] (62.5 g/ha), 90%. Besides, the pest or weed control at 250 g/ha was 70% in [1] and 90% with Setaria faberi (SETFA) [2]. The plant injury at 125 g/ha in test [3] (125 g/ha) was 0%; in test [4] (125 g/ha), 70%; in test [5] (125 g/ha), 10%; in test [6] (125 g/ha), 0%. Moreover, the pest or weed control at 125 g/ha amounted to 60% in [7] (125 g/ha); 40% with Avena fatua (AVEFA) (125 g/ha); 80% in the test with Lolium perenne (LOLPE) (125 g/ha); 100% in [8] (125 g/ha); 60% in [9] (125 g/ha); 80% in test [10] (125 g/ha). The pest or weed control at 125 g/ha with Setaria faberi (SETFA) [11] (125 g/ha) is 80%. The same compound displayed a pest or weed control at 30 g/ha in test [12] of 90%. Besides, the pest or weed control at 60 g/ha in test [12] came to 90%.
Consider `Cc1cc(C#CCl)cc(C)c1C1C(=O)CC(CC2CCOCC2)CC1=O` (centres unmarked) [Compound A-8], for which the figures for the pest or weed control at 250 g/ha (in test [1]; with Setaria faberi (SETFA) [2]) were 80% and 90%, respectively. The compound further returned a pest or weed control at 30 g/ha in test [12] of 100%.
Consider `CC#Cc1cc(Cl)c(C2C(=O)CC3(CCOCC3)CC2=O)c(OC)c1` [Compound A-20, 9-(2-Chloro-6-methoxy-4-prop-1-ynyl-phenyl)-3-oxa-spiro[5.5]undecane-8,10-dione], for which the pest or weed control at 8 g/ha (in test [1] (8 g/ha); in the test with Setaria faberi (SETFA) [2] (8 g/ha)) was 90% throughout. Moreover, the pest or weed control at 30 g/ha (in test [1]; in the test on Setaria faberi (SETFA) [2]) was 100% throughout. Further, the pest or weed control at 250 g/ha (in test [1]; in the test with Setaria faberi (SETFA) [2]) was 100% throughout.
As to `CC#Cc1cc(C)c(C2C(=O)CC(CCSC)CC2=O)c(C)c1` (centres unmarked) [Compound A-21, 2-(2,6-Dimethyl-4-prop-1-ynyl-phenyl)-5-(2-methylsulfanyl-ethyl)cyclohexane-1,3-dione], in [1], the pest or weed control at 30 g/ha turned out to be 50% and the pest or weed control at 250 g/ha came out at 90%. For the same compound, in the test with Setaria faberi (SETFA) [2], the pest or weed control at 30 g/ha amounted to 70% and the pest or weed control at 250 g/ha was 100%.
